Values of other authors, collected in US20060251722A1, “Multi-component vitamin and mineral supplement for the optimal absorption of components” (Novavax, Inc., priority 2005, published 2006).

Details: rat, in vivo, po

bioavailability relative to other elemental iron forms: 2-5 times
Substance: carbonyl iron
